Converted amounts (≈) assume the structure as drawn.
Experiments:
[1] = cited from earlier work
physchem = settings: 25 °C, water, thermodynamic from solid
[2] = cited from earlier work; remark: listed apart in the source
[3] = Solubility study of meloxicam in injectable solution; type: physicochemical; settings: aqueous with cosolvent or surfactant or cyclodextrin; PEG 400 300 mg/mL, pH 7.7-8.0 (NaOH/citric acid)
[4] = Solubility of meloxicam in organic base or alkaline amino acid solutions (Comparative Example A4); type: physicochemical; settings: for solubility at 24 h: 25 °C, shaking at 25° C. for 24 h, n = 3
[5] = Solubility of meloxicam in PEG 200, PEG300 or PEG600; type: physicochemical; settings: 25 °C, organic solvent or mixture, thermodynamic from solid, read-out: Solubility (shaking at 25° C. for 24 h)

solubility at 24 h (physchem): 0.02 mg/mL (≈ 0.0569 mM)
solubility [3]: 60 mg/mL (≈ 171 mM)
solubility at 24 h ([4]; Tris solution, aqueous buffer, thermodynamic from solid, Tris 5 mg/mL): 5.54 mg/mL (≈ 15.8 mM)
solubility at 24 h ([4]; Tris solution, aqueous buffer, thermodynamic from solid, Tris 10 mg/mL): 9.07 mg/mL (≈ 25.8 mM)
solubility at 24 h ([4]; Tris solution, aqueous buffer, thermodynamic from solid, Tris 15 mg/mL): 11.4 mg/mL (≈ 32.4 mM)
solubility at 24 h ([4]; Tris solution, aqueous buffer, thermodynamic from solid, Tris 20 mg/mL): 14.3 mg/mL (≈ 40.6 mM)
solubility at 24 h ([4]; Tris solution, aqueous buffer, thermodynamic from solid, Tris 30 mg/mL): 18.3 mg/mL (≈ 52.1 mM)
stability of the solutions in organic base or basic amino acid ([4]; after standing overnight at room temperature): Crystals were precipitated
solubility at 24 h ([4]; arginine solution, aqueous buffer, thermodynamic from solid, Arginine 7 mg/mL): 11.2 mg/mL (≈ 32 mM)
solubility at 24 h ([4]; arginine solution, aqueous buffer, thermodynamic from solid, Arginine 14 mg/mL): 11.6 mg/mL (≈ 32.9 mM)
solubility at 24 h ([4]; arginine solution, aqueous buffer, thermodynamic from solid, Arginine 20 mg/mL): 11.6 mg/mL (≈ 33 mM)
solubility at 24 h ([4]; arginine solution, aqueous buffer, thermodynamic from solid, Arginine 30 mg/mL): 12.8 mg/mL (≈ 36.4 mM)
solubility at 24 h ([4]; arginine solution, aqueous buffer, thermodynamic from solid, Arginine 40 mg/mL): 14.2 mg/mL (≈ 40.5 mM)
solubility ([4]; high concentration organic base or basic amino acid solution, aqueous buffer, thermodynamic from solid, solubility of meloxicam in a high concentration organic base or basic amino acid, high concentration organic base or basic amino acid): ≥ 10 mg/mL
solubility at 24 h ([4]; lysine solution, aqueous buffer, thermodynamic from solid, Lysine 6 mg/mL): 10.5 mg/mL (≈ 29.7 mM)
solubility at 24 h ([4]; lysine solution, aqueous buffer, thermodynamic from solid, Lysine 19 mg/mL): 29.8 mg/mL (≈ 84.7 mM)
solubility at 24 h ([4]; lysine solution, aqueous buffer, thermodynamic from solid, Lysine 24 mg/mL): 35.9 mg/mL (≈ 102 mM)
solubility at 24 h ([4]; meglumine solution, aqueous buffer, thermodynamic from solid, Meglumine 5 mg/mL): 8.01 mg/mL (≈ 22.8 mM)
solubility at 24 h ([4]; meglumine solution, aqueous buffer, thermodynamic from solid, Meglumine 10 mg/mL): 17.8 mg/mL (≈ 50.7 mM)
solubility at 24 h ([4]; meglumine solution, aqueous buffer, thermodynamic from solid, Meglumine 15 mg/mL): 24.6 mg/mL (≈ 70.1 mM)
solubility at 24 h ([5]; Cosolvent PEG200): 3.6 mg/mL (≈ 10.2 mM)
solubility at 24 h ([5]; Cosolvent PEG300): 2.81 mg/mL (≈ 8 mM)
solubility at 24 h ([5]; Cosolvent PEG600): 3.18 mg/mL (≈ 9.05 mM)
SMILES: Cc1cnc(NC(=O)C2=C(O)c3ccccc3S(=O)(=O)N2C)s1 [Meloxicam, 4-hydroxy-2-methyl-N-(5-methyl-2-thiazolyl)-2H-1,2-benzothiazine-3-carboxamide-1,1-dioxide]
maximum solubility in pure PEG 400 ([1]; Zaira J. Cárdenas et al.): 9.2 mg/mL
solubility of meloxicam in pure PEG 400 ([1]; found by Neelam Seeder et al.): 3.763 mg/mL
solubility in water ([2]; 25° C.): 0.003414 mg/mL (≈ 0.00972 mM)
solubility in chloroform, acetone and ethanol [2]: slightly soluble
